Values quoted from earlier work as cited in patent US20170095445A1 (priority 2012, published 2017).
Residues, ends and D or L forms follow the SMILES beside them.

System: asthma induced by sensitization and challenge with ovalbumin
Settings: mouse, in vivo

CC(=O)NC(CS)C(=O)N1CCCC1C(=O)NC(CS)C(N)=O (stereo not drawn) [R-901, 1-(2-acetamido-3-mercaptopropanoyl)-N-(1-amino-3-mercapto-1-oxopropan-2-yl) pyrrolidine-2-carboxamide] (Ac-Cys-Pro-Cys-NH2; configuration not given here)
efficacy in murine model of asthma: efficacious
